Laboratory results reported in paper PMC9870890 (Nature Communications, 2023).
Changes are numbered by the printed parent chain. Several values for one entry are separate records, joined by “and”; a condition that tells them apart may be missing. Equal entries are not always repeated.

Experiments:
M2R = biological target: T1, M2R (Homo sapiens, UniProt P08172); assay: biochemical; format: binding; design: expressed in transfected cells
T1 sequence (P08172 1-466): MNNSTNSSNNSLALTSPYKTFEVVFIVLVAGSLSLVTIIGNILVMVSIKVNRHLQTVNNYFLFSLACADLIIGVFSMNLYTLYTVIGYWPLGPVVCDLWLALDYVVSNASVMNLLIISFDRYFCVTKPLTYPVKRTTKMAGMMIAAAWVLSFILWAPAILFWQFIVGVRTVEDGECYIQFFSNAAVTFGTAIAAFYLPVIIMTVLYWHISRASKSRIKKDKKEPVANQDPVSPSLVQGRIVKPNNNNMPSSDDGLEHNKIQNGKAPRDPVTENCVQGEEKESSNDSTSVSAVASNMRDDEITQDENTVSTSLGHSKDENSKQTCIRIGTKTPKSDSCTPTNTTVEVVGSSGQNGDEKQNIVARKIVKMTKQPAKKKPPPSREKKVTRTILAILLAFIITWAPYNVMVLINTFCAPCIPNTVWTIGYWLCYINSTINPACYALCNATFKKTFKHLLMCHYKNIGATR
Method: Purified M2R receptor was reconstituted into high-density lipoprotein (HDL) particles constituting apolipoprotein A1(APOA1) and mixture of POPG: POPC lipids with 3:2 (mol:mol)ratio as previously described. […] Membranes or HDL particles were separated from excess [^3H]-NMS by Whatman GF/B filters using a Brandel 48-well harvester. The bound radioligand were read on a liquid scintillation counter (MicroBeta Jet, PerkinElmer). Data were analyzed by GraphPad Prism 9.2.0.

M2R L129^34.51A mutant = biological target: T2, M2R L129^34.51A mutant (Homo sapiens, UniProt P08172, L129A); assay: NanoBiT-GoA dissociation assay, L129A mutant M2R
T2 sequence (P08172 1-466 L129A): T1 sequence (P08172 1-466) with L129A
Method: Plasmid transfection for HEK293A cells (Thermo Fisher Scientific) was performed by combining 25 µl (volume is per 10-cm culture dish) of polyethylenimine solution (1 mg/mL) and a mixture of plasmids each encoding the large fragment (LgBiT)-containing the GαoA subunit (500 ng), the small fragment (SmBiT)-fused Gγ2 subunit with the C68S mutation (2.5 µg) and the untagged Gβ1 subunit (2.5 µg), along with a human, wild-type M2R (1 µg; containing N-terminal HA-derived signal sequence followed by the FLAG-epitope tag). After an incubation for one day, the transfected cells were harvested, pelleted with centrifugation, and suspended in 9 ml of Hank’s balanced saline solution (HBSS) containing 0.01% bovine serum albumin (BSA fatty acid–free grade, SERVA) and 5 mM HEPES (pH 7.4) (assay buffer). The cell suspension was dispensed in a white 96-well plate at a volume of 70 µl per well and mixed with 20 µl of 50 µM coelenterazine (Carbosynth) diluted in the assay buffer. […] Kinetics data points from 5 min to 10 min were averaged and normalized to the initial count and used as a G-protein dissociation index. For the mutant study, the cell culture and the transfection mixture were scaled down to a 6-cm dish (4 ml culture media) and the transfected cells were suspended in 4 ml of the assay buffer and seeded in the 96-well plate at a volume of 80 µL. The G-protein dissociation signals were fitted to a four-parameter sigmoidal concentration-response curve (GraphPad Prism8). For each experiment, we calculated Emax by normalizing Span to the LY2119620-free condition and ∆pEC50 by subtracting pEC50 of the LY2119620-free condition performed in parallel and used the values to denote allosteric modulator activity. Similarly, for the mutant study, we calculated ∆pEC50 by subtracting pEC50 of the WT (1:1) condition performed in parallel.

Mock = assay: NanoBiT-GoA dissociation assay, Mock-transfected cells (control); format: cell-based
human, wild-type M2R = biological target: T3, human, wild-type M2R (Homo sapiens, UniProt P08172); assay: NanoBiT-G-protein (GoA) dissociation assay, wild-type M2R, HEK293A cells; format: cell-based; conditions: for NanoBiT-GoA dissociation signal, Mean (Veh = 1.000): n = 4
T3 construct: expressed in transfected cells; host or cells: HEK293A
T3 sequence (P08172 1-466): T1 sequence (P08172 1-466)
Method: Plasmid transfection for HEK293A cells (Thermo Fisher Scientific) was performed by combining 25 µl (volume is per 10-cm culture dish) of polyethylenimine solution (1 mg/mL) and a mixture of plasmids each encoding the large fragment (LgBiT)-containing the GαoA subunit (500 ng), the small fragment (SmBiT)-fused Gγ2 subunit with the C68S mutation (2.5 µg) and the untagged Gβ1 subunit (2.5 µg), along with a human, wild-type M2R (1 µg; containing N-terminal HA-derived signal sequence followed by the FLAG-epitope tag). After an incubation for one day, the transfected cells were harvested, pelleted with centrifugation, and suspended in 9 ml of Hank’s balanced saline solution (HBSS) containing 0.01% bovine serum albumin (BSA fatty acid–free grade, SERVA) and 5 mM HEPES (pH 7.4) (assay buffer). The cell suspension was dispensed in a white 96-well plate at a volume of 70 µl per well and mixed with 20 µl of 50 µM coelenterazine (Carbosynth) diluted in the assay buffer. After 2 h incubation at room temperature, the plate was measured for baseline luminescence (SpectraMax L, Molecular Devices) and 10 µl of titrated concentrations of LY2119620 diluted in the assay buffer were added. […] Kinetics data points from 5 min to 10 min were averaged and normalized to the initial count and used as a G-protein dissociation index. […] The G-protein dissociation signals were fitted to a four-parameter sigmoidal concentration-response curve (GraphPad Prism8). For each experiment, we calculated Emax by normalizing Span to the LY2119620-free condition and ∆pEC50 by subtracting pEC50 of the LY2119620-free condition performed in parallel and used the values to denote allosteric modulator activity.

M2R and GoA = biological target: T4, M2R and GoA (Homo sapiens, UniProt P08172); assay: GTPase-Glo assay (GTP turnover) with purified M2R and GoA; format: biochemical; conditions: for Residual GTP (%): 90 min, normalized to GoA alone; for GTP-turnover, Fig. 1c (GTPase-Glo luminescence): 100 μM ACh or 10 μM Ixo, M2R-GoA
T4 construct: FLAG (N); 8xHis (C); made in house; host or cells: Sf9 insect cells (receptor)
T4 sequence (P59768 2-68, one chain of several): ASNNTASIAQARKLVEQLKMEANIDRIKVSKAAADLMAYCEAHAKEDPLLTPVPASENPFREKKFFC
T4 sequence (P09471 2-354, one chain of several, further chain): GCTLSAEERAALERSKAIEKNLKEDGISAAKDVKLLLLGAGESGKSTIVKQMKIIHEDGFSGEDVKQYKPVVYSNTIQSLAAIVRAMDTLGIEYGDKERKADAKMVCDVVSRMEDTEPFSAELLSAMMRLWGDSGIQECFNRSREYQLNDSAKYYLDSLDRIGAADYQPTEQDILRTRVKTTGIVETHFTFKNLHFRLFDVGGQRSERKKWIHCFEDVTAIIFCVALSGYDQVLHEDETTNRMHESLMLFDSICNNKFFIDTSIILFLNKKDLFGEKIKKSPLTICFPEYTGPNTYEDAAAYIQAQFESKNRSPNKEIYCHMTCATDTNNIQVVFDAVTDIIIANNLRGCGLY
T4 sequence (P62873 whole entry, one chain of several, further chain): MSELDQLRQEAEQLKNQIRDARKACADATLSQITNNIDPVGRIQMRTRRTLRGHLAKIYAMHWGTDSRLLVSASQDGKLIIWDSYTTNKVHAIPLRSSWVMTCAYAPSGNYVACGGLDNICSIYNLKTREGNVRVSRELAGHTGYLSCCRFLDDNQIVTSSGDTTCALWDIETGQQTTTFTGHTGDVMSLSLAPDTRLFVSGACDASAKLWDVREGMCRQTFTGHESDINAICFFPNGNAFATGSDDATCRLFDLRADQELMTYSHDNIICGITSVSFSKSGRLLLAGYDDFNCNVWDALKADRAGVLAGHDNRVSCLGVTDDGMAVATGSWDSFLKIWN
Method: The receptors for GTPase-Glo^TM assay were expressed and purified as described above and frozen at −80 °C before use. […] The GTPase reaction was incubated at room temperature (22–25 °C) for different times (15–90 min). […] After incubation, 5 μL reconstituted 1xGTPase-Glo^TM Reagent (Promega) was added to the completed GTPase reaction, mixed briefly and incubated with shaking for 30 min at room temperature (22–25 °C) to convert the remaining GTP into ATP. Then 10 μL Detection Reagent (Promega) was added to the system and incubated for 5-10 min at room temperature (22–25 °C) to convert the ATP into luminescent signals. Luminescence intensity was quantified using a Multimode Plate Reader (PerkinElmer) luminescence counter.

## CC(=O)OCC[N+](C)(C)C [ACh, acetylcholine]
M2R; M2R in HDL particles
  increase of affinity on addition of GoA: ~ 65 fold
M2R; log[M] -4, without GoA
  competition curve data, Fig. 1b ([3H]-NMS binding): 5.782 and 5.65 and 7.077
M2R; log[M] -5, +GoA
  competition curve data, Fig. 1b ([3H]-NMS binding): 8.6818 and 10.1951 and 7.089
M2R; log[M] -5, without GoA
  competition curve data, Fig. 1b ([3H]-NMS binding): 30.6813 and 33.2587 and 33.4266
M2R; log[M] -6, +GoA
  competition curve data, Fig. 1b ([3H]-NMS binding): 19.1734 and 19.6734 and 19.2354
M2R; log[M] -6, without GoA
  competition curve data, Fig. 1b ([3H]-NMS binding): 75.6364 and 71.4046
M2R; log[M] -7, +GoA
  competition curve data, Fig. 1b ([3H]-NMS binding): 35.8423 and 48.5862 and 43.4886
M2R; log[M] -7, without GoA
  competition curve data, Fig. 1b ([3H]-NMS binding): 93.5585 and 94.8412 and 97.6703
M2R; log[M] -8, +GoA
  competition curve data, Fig. 1b ([3H]-NMS binding): 63.401 and 72.72 and 79.9283
M2R; log[M] -8, without GoA
  competition curve data, Fig. 1b ([3H]-NMS binding): 87.5165 and 90.6813 and 92.0839
M2R; log[M] -9, +GoA
  competition curve data, Fig. 1b ([3H]-NMS binding): 85.6233 and 86.2605 and 91.0793
M2R; log[M] -9, without GoA
  competition curve data, Fig. 1b ([3H]-NMS binding): 98.6534 and 93.3786 and 102.25
M2R; log[M] -10, +GoA
  competition curve data, Fig. 1b ([3H]-NMS binding): 98.2875 and 107.686 and 94.0263
M2R; log[M] -10, without GoA
  competition curve data, Fig. 1b ([3H]-NMS binding): 99.5165 and 100.667 and 99.8162
M2R; purified M2R reconstituted in HDL particles
  binding affinity lower than Ixo: ~ 90 fold
M2R L129^34.51A mutant
  ∆pEC50: -0.530 and -0.558 and -0.440
M2R L129^34.51A mutant; ACh Log [M] -4, n = 3
  NanoBiT-GoA dissociation signal, Mean (Veh = 1.000): 0.350
M2R L129^34.51A mutant; ACh Log [M] -5, n = 3
  NanoBiT-GoA dissociation signal, Mean (Veh = 1.000): 0.368
M2R L129^34.51A mutant; ACh Log [M] -6, n = 3
  NanoBiT-GoA dissociation signal, Mean (Veh = 1.000): 0.470
M2R L129^34.51A mutant; ACh Log [M] -8, n = 3
  NanoBiT-GoA dissociation signal, Mean (Veh = 1.000): 0.926
M2R L129^34.51A mutant; ACh Log [M] -9, n = 3
  NanoBiT-GoA dissociation signal, Mean (Veh = 1.000): 0.991
M2R L129^34.51A mutant; ACh Log [M] -10, n = 3
  NanoBiT-GoA dissociation signal, Mean (Veh = 1.000): 0.994
Mock; ACh Log [M] -4, n = 3
  NanoBiT-GoA dissociation signal, Mean (Veh = 1.000): 0.999
Mock; ACh Log [M] -5, n = 3
  NanoBiT-GoA dissociation signal, Mean (Veh = 1.000): 0.997
Mock; ACh Log [M] -6, n = 3
  NanoBiT-GoA dissociation signal, Mean (Veh = 1.000): 0.997
Mock; ACh Log [M] -7, n = 3
  NanoBiT-GoA dissociation signal, Mean (Veh = 1.000): 0.998
Mock; ACh Log [M] -8, n = 3
  NanoBiT-GoA dissociation signal, Mean (Veh = 1.000): 1.007
Mock; ACh Log [M] -9, n = 3
  NanoBiT-GoA dissociation signal, Mean (Veh = 1.000): 1.008
Mock; ACh Log [M] -10, n = 3
  NanoBiT-GoA dissociation signal, Mean (Veh = 1.000): 1.011
human, wild-type M2R; WT (1:1), reference
  ∆pEC50: 0.000
human, wild-type M2R; WT (1:1), ACh Log [M] -4
  NanoBiT-GoA dissociation signal, Mean (Veh = 1.000): 0.337
human, wild-type M2R; WT (1:1), ACh Log [M] -5
  NanoBiT-GoA dissociation signal, Mean (Veh = 1.000): 0.351
human, wild-type M2R; WT (1:1), ACh Log [M] -6
  NanoBiT-GoA dissociation signal, Mean (Veh = 1.000): 0.394
human, wild-type M2R; WT (1:1), ACh Log [M] -7
  NanoBiT-GoA dissociation signal, Mean (Veh = 1.000): 0.558
human, wild-type M2R; WT (1:1), ACh Log [M] -8
  NanoBiT-GoA dissociation signal, Mean (Veh = 1.000): 0.840
human, wild-type M2R; WT (1:1), ACh Log [M] -9
  NanoBiT-GoA dissociation signal, Mean (Veh = 1.000): 0.978
human, wild-type M2R; WT (1:2)
  ∆pEC50: -0.277 and -0.205 and -0.364 and -0.275
human, wild-type M2R; WT (1:2), ACh Log [M] -4
  NanoBiT-GoA dissociation signal, Mean (Veh = 1.000): 0.345
human, wild-type M2R; WT (1:2), ACh Log [M] -5
  NanoBiT-GoA dissociation signal, Mean (Veh = 1.000): 0.355
human, wild-type M2R; WT (1:2), ACh Log [M] -6
  NanoBiT-GoA dissociation signal, Mean (Veh = 1.000): 0.427
human, wild-type M2R; WT (1:2), ACh Log [M] -7
  NanoBiT-GoA dissociation signal, Mean (Veh = 1.000): 0.636
human, wild-type M2R; WT (1:2), ACh Log [M] -8
  NanoBiT-GoA dissociation signal, Mean (Veh = 1.000): 0.898
human, wild-type M2R; WT (1:2), ACh Log [M] -9
  NanoBiT-GoA dissociation signal, Mean (Veh = 1.000): 0.988
M2R and GoA; +DMSO
  Residual GTP (%): 45.3131% and 35.9349% and 31.3573% and 30.3217%
M2R and GoA; +LY2119620 (100 μM)
  Residual GTP (%): 63.4937% and 52.5673% and 44.2408% and 50.614% and 40.1818%
M2R and GoA; agonist-bound M2R
  GTP turnover rate and efficacy: much lower GTP turnover rate and efficacy than Ixo-bound M2R
M2R and GoA; time 15 min
  GTP-turnover, Fig. 1c (GTPase-Glo luminescence): 580068 and 653066 and 555333 and 703107
M2R and GoA; time 30 min
  GTP-turnover, Fig. 1c (GTPase-Glo luminescence): 338018 and 388059 and 371258 and 437553
M2R and GoA; time 45 min
  GTP-turnover, Fig. 1c (GTPase-Glo luminescence): 365372 and 350617 and 319511 and 370440
M2R and GoA; time 60 min
  GTP-turnover, Fig. 1c (GTPase-Glo luminescence): 469821 and 332109 and 488525 and 361230
M2R and GoA; time 90 min
  GTP-turnover, Fig. 1c (GTPase-Glo luminescence): 354237 and 250414 and 339305 and 252170
